Test results as given in patent US20080310991A1, “Perishable-fruit-bearing cut-limb preservation and distribution method, coating and shipping container therefor” (State of Oregon, acting by and through the State Board of …, priority 2007, published 2008).

Columns and labels:
Format in all cases: in vivo, Malus silvestris L. var. domestica Borkh.
[1] = test system: Rome Beauty apples cut-limbs; assay: Ascorbic acid treatment, visual quality during storage; conditions: for Fruit visual quality / Leaves Symptom / Leaves visual quality: Rome Beauty apples, ASA 0.1%, 30 mL, packaged, 20° C.
Protocol: (§1) The cut-limbs without 1-MCP treatment, after twenty-three and forty-two days of cold storage, were then transferred to room temperature (20° C.), and treated with the following five treatments: bagging, water dipping, bagging plus dipping, bagging […] the control. For the ascorbic acid dipping/abscisic acid spraying experiment, the following four treatments were carried out: ascorbic acid (0.1%) dipping only, coating with an abscission-inducing agent (ABA) such as 0.001% by volume (10 ppm) of abscisic acid added only, 0.1% by volume of ascorbic acid dipping plus coating with ABA added, and the control only. All of the treatments included dipping or coating (or both) and packaging in the perforated polyethylene bags.
(§2) Visual quality of leaves was scored with the widely used scale of 9=excellent, fresh; 7=good; 5=fair, slight discoloration; 3=mild discoloration and dryness; and 1=severe discoloration and dryness. Sensory quality of fruit was scored using a scale of 9=pleasant, fresh; 7=good; 5=bland, faint taste; 3=unpleasant taste; and 1=inedible. For both scales, a score of 5 is generally considered in post-harvest studies to be the threshold level of acceptability.

[2] = test system: Rome Beauty apples cut-limbs; assay: Ascorbic acid dipping/abscisic acid spraying experiment; conditions: packaged
Protocol: (§3) For Rome Beauty apples only, a long term storage experiment and an ascorbic acid dip solution/plant regulator spray experiment were also carried out. For the long-term storage experiment, sixty cut-limbs were harvested, packed in the perforated bags, and stored at 1° C. (nearly the freezing temperature of water). Half of the cut-limbs were treated with 0.0001% by volume (1 ppm) of 1-methylcyclopropene (1-MCP) at 1° C. for twenty-four hours before storage. […] It is possible, however, that MCP treatment would be beneficial in other applications, e.g. with different fruit types, varieties, cultivars, etc.
as §1

[3] = test system: cut-limbs of Golden Delicious apple; assay: Citric acid immerging, visual quality of cut-limbs; conditions: 0.5% CA, 30 mL, packaged, 20° C.
Source text: as §2

[4] = test system: Rome Beauty apple-bearing cut-limbs; assay: Long-term storage experiment with 1-MCP treatment; conditions: 1 ppm 1-MCP at 1° C. for twenty-four hours
Protocol: as §3

[5] = 0.1% ascorbic acid dip solution
[6] = 10 ppm abscisic acid in the edible coatings

Q: With `O=C1O[C@H]([C@@H](O)CO)C(O)=C1O` [ASA, ascorbic acid] as the compound, how does the Fruit visual quality ([1]; day 1) read?
A: 9.0 a

Q: And the “Leaves Symptom” value ([1]; day 1)?
A: Normal

Q: And the Leaves visual quality ([1]; day 1)?
A: 8.5 a

Q: And the Fruit visual quality ([1]; day 2)?
A: 9.0 a

Q: And the “Leaves Symptom” value ([1]; day 2)?
A: Normal

Q: What about the Leaves visual quality ([1]; day 2) of the same compound?
A: 8.6 a

Q: And the Fruit visual quality ([1]; day 3)?
A: 9.0 a

Q: And the “Leaves Symptom” value ([1]; day 3)?
A: Normal

Q: What about the Leaves visual quality ([1]; day 3) of the same compound?
A: 8.3 a

Q: And the Fruit visual quality ([1]; day 4)?
A: 9.0 a

Q: And the “Leaves Symptom” value ([1]; day 4)?
A: Normal

Q: What about the Leaves visual quality ([1]; day 4) of the same compound?
A: 8.3 a

Q: What about the Fruit visual quality ([1]; day 5) of the same compound?
A: 9.0 a

Q: What about the “Leaves Symptom” value ([1]; day 5) of the same compound?
A: Normal

Q: What about the Leaves visual quality ([1]; day 5) of the same compound?
A: 8.4 a

Q: What about the Fruit visual quality ([1]; day 6) of the same compound?
A: 9.0 a

Q: What about the Leaves visual quality ([1]; day 6) of the same compound?
A: 8.2 a

Q: And the Fruit visual quality ([1]; day 7)?
A: 8.5 a

Q: And the Leaves visual quality ([1]; day 7)?
A: 8.0 a

Q: And the “Color and luster (FIG. 3C)” value ([1]; after seven days stored with water dipping and packaging, vs no-acid)?
A: visibly better color and luster

Q: And the “Shelf-life of the cut-limbs” value [2, 5]?
A: increased

Q: And the Water loss [2, 5]?
A: decreased

Q: `O=C(O)CC(O)(CC(=O)O)C(=O)O` [CA, citric acid] was tested. Which Fruit visual quality ([3]; day 1) did it give?
A: 9.0

Q: What about the Leaves visual quality ([3]; day 1) of the same compound?
A: 8.6

Q: And the Fruit visual quality ([3]; day 2)?
A: 9.0

Q: What about the Leaves visual quality ([3]; day 2) of the same compound?
A: 8.4

Q: What about the Fruit visual quality ([3]; day 3) of the same compound?
A: 9.0

Q: And the Leaves visual quality ([3]; day 3)?
A: 8.3

Q: What about the Fruit visual quality ([3]; day 4) of the same compound?
A: 8.5

Q: What about the Leaves visual quality ([3]; day 4) of the same compound?
A: 7.9

Q: What about the Fruit visual quality ([3]; day 5) of the same compound?
A: 8.5

Q: What about the Leaves visual quality ([3]; day 5) of the same compound?
A: 8.4

Q: And the Fruit visual quality ([3]; day 6)?
A: 8.5

Q: What about the Leaves visual quality ([3]; day 6) of the same compound?
A: 8.2

Q: What about the Fruit visual quality ([3]; day 7) of the same compound?
A: 8.5

Q: What about the Leaves visual quality ([3]; day 7) of the same compound?
A: 8.0

Q: With `CC1=CC(=O)CC(C)(C)[C@@]1(O)/C=C/C(C)=C\C(=O)O` [abscisic acid] as the compound, how does the “Shelf-life of the cut-limbs” value [2, 6] read?
A: increased

Q: And the Water loss [2, 6]?
A: decreased

Q: With `CC1=CC1` [1-MCP, 1-methylcyclopropene] as the compound, how does the Fruit appearance ([4]; Rome Beauty cut-limbs) read?
A: normal appearance

Q: And the “Leaves showing brown-black burn symptoms” value ([4]; Rome Beauty cut-limbs)?
A: approximately 68%

Q: And the “Phytotoxicity to the leaves” value ([4]; after four days of storage at 1° C.)?
A: severe phytotoxicity
